Measurements from BindingDB's records for doi:10.1021/cb4002602 (National University of Singapore, 2013).
pIC50: −log10 of the molar value.

These compounds were tested against Protein disulfide-isomerase (Bos taurus) (UniProt P05307) (assay: The assay was carried out in 384-well plates according to literature procedures [46]. Each well contained 100mM sodium phosphate and 0.2mM EDTA pH 7.0. 10ng PDI was pre-incubated with various concentration of probes (4% DMSO) in 20uL buffer for 30 min at 37 degrees Celsius, followed by the addition of insulin (0.16mM final concentration) and DDT (1mM).
Protein disulfide-isomerase (Bos taurus), sequence (P05307 whole entry, looked up): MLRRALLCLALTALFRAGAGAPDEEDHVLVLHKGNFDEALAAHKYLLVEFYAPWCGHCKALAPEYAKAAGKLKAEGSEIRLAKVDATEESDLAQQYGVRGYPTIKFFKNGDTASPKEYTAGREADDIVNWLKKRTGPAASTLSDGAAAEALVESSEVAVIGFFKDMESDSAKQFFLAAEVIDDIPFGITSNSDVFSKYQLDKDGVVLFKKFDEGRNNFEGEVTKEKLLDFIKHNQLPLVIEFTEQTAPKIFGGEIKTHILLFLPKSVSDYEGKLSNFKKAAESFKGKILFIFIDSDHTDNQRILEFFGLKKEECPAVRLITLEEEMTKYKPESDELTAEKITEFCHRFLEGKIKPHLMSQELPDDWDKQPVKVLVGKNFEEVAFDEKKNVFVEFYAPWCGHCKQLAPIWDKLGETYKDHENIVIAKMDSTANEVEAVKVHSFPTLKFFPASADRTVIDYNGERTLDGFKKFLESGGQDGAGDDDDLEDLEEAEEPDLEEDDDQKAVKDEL

First: C#CCNC(=O)[C@H](Cc1ccc(OS(=O)(=O)C=C)cc1)NC(=O)C(Cl)CC (stereo partly drawn) [PDI inhibitor P20]
Second: C#CCNC(=O)[C@H](Cc1ccc(OS(=O)(=O)C=C)cc1)NC(=O)C(C)(C)CC [PDI inhibitor P12]
The pIC50 of the first is 0.25 log units lower: 5.24 for the first, 5.49 for the second.

First: C#CCNC(=O)[C@H](Cc1ccc(OS(=O)(=O)C=C)cc1)NC(=O)c1ccc(F)c(C(F)(F)F)c1 [PDI inhibitor P14]
Second: C#CCNC(=O)[C@H](Cc1ccc(OS(=O)(=O)C=C)cc1)NC(=O)c1ccc(C)c(F)c1 [PDI inhibitor P21]
The pIC50 of the first is 0.40 log units higher: 6.00 for the first, 5.60 for the second. The first is the more potent here.

`C=CS(=O)(=O)Oc1ccc(C[C@H](NC(=O)[C@H](Cc2ccccc2)NC(=O)OC(C)(C)C)C(=O)NCCNC(=O)CCCC[C@@H]2SCC3NC(=O)NC32)cc1` (stereo partly drawn) [PDI inhibitor P11] and `C#CCCNC(=O)[C@H](Cc1ccc(OS(=O)(=O)C=C)cc1)NC(=O)[C@H](Cc1ccccc1)NC(=O)OC(C)(C)C` [PDI inhibitor P1] are within 0.2 log units of each other in pIC50: 5.96 for the first, 5.77 for the second.

Going from `C#CCNC(=O)[C@H](Cc1ccc(OS(=O)(=O)C=C)cc1)NC(=O)c1cc(F)c(F)c(OC)c1F` [PDI inhibitor P22] to `C#CCNC(=O)[C@H](Cc1ccc(OS(=O)(=O)C=C)cc1)NC(=O)c1c(F)c(F)c(F)c(F)c1F` [PDI inhibitor P13], the pIC50 falls from 5.85 to 5.60 (0.25 log units).

`C#CCNC(=O)[C@H](Cc1ccc(OS(=O)(=O)C=C)cc1)NC(=O)C1(C)CCCCC1` [PDI inhibitor P16] and `C#CCNC(=O)[C@H](Cc1ccc(OS(=O)(=O)C=C)cc1)NC(=O)C1(C)CC1(Cl)Cl` (stereo partly drawn) [PDI inhibitor P19] are within 0.2 log units of each other in pIC50: 5.64 for the first, 5.60 for the second.

`C#CCCNC(=O)[C@H](Cc1cc(=O)oc2cc(OS(=O)(=O)C=C)ccc12)NC(=O)[C@H](Cc1ccccc1)NC(=O)OC(C)(C)C` [PDI inhibitor P2] and `C#CCNC(=O)[C@H](Cc1ccc(OS(=O)(=O)C=C)cc1)NC(=O)[C@H](Cc1ccccc1)NC(=O)OC(C)(C)C` [PDI inhibitor P6] are within 0.2 log units of each other in pIC50: 5.74 for the first, 5.72 for the second.

`C#CCNC(=O)[C@H](Cc1ccc(OS(=O)(=O)C=C)cc1)NC(=O)C1(c2ccccc2)CC1` [PDI inhibitor P10] and `C#CCNC(=O)[C@H](Cc1ccc(OS(=O)(=O)C=C)cc1)NC(=O)C(=O)c1ccccc1` [PDI inhibitor P23] are within 0.2 log units of each other in pIC50: 5.68 for the first, 5.74 for the second.

Going from `C#CCNC(=O)[C@H](Cc1ccc(OS(=O)(=O)C=C)cc1)NC(=O)c1ccc2ccccc2c1` [PDI inhibitor P8] to `C#CCNC(=O)[C@H](Cc1ccc(OS(=O)(=O)C=C)cc1)NC(=O)c1ccc(OC)cc1` [PDI inhibitor P9], the pIC50 falls from 5.57 to 5.28 (0.29 log units).

`C#CCNC(=O)[C@H](Cc1ccc(OS(=O)(=O)C=C)cc1)NC(=O)CCc1ccc(OC)cc1` [PDI inhibitor P17] and `C#CCNC(=O)[C@H](Cc1ccc(OS(=O)(=O)C=C)cc1)NC(=O)CCc1ccccc1` [PDI inhibitor P24] are within 0.2 log units of each other in pIC50: 5.48 for the first, 5.66 for the second.

Going from `C#CCNC(=O)[C@H](Cc1ccc(OS(=O)(=O)C=C)cc1)NC(=O)c1ccc(CC)cc1` [PDI inhibitor P15] to `C#CCNC(=O)[C@H](Cc1ccc(OS(=O)(=O)C=C)cc1)NC(=O)c1ccc(C)cc1C` [PDI inhibitor P7], the pIC50 falls from 5.96 to 5.51 (0.45 log units). The first is the more potent here.

`C#CCNC(=O)[C@H](Cc1ccc(OS(=O)(=O)C=C)cc1)NC(=O)c1ccc(F)cc1Cl` [PDI inhibitor P18] and `C#CCNC(=O)[C@H](Cc1ccc(OS(=O)(=O)C=C)cc1)NC(=O)c1cc(OC)c(OC)cc1Br` [PDI inhibitor P25] are within 0.2 log units of each other in pIC50: 5.55 for the first, 5.47 for the second.

For `COC(=O)C1(C)c2[nH]c3ccccc3c2CCN1C(=O)CCl` (stereo not drawn) [16F16], the pIC50 was 4.13.
